# From PubChem BioAssay (NCI)
#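 Cultured in 96-well plates, cells were exposed to test compound for 48 hours across five concentrations. GI50 is the concentration that inhibits growth by half. At the TGI there is no net growth.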
# How the values were obtained:
# Experiment in all cases: growth of human tumour cells (NCI), 48 h
# 786-0 renal = tested on: 786-0 renal
# A498 renal = tested on: A498 renal
# A549 NSCLC = tested on: A549 NSCLC
# ACHN renal = tested on: ACHN renal
# BT-549 breast = tested on: BT-549 breast
# CAKI-1 renal = tested on: CAKI-1 renal
# CCRF-CEM leukemia = tested on: CCRF-CEM leukemia
# COLO 205 colon = tested on: COLO 205 colon
# DU-145 prostate = tested on: DU-145 prostate
# EKVX NSCLC = tested on: EKVX NSCLC
# HCC-2998 colon = tested on: HCC-2998 colon
# HCT-116 colon = tested on: HCT-116 colon
# HCT-15 colon = tested on: HCT-15 colon
# HL-60(TB) leukemia = tested on: HL-60(TB) leukemia
# HOP-62 NSCLC = tested on: HOP-62 NSCLC
# HOP-92 NSCLC = tested on: HOP-92 NSCLC
# HS 578T breast = tested on: HS 578T breast
# HT29 colon = tested on: HT29 colon
# IGROV1 ovarian = tested on: IGROV1 ovarian
# K-562 leukemia = tested on: K-562 leukemia
# KM12 colon = tested on: KM12 colon
# LOX IMVI melanoma = tested on: LOX IMVI melanoma
# M14 melanoma = tested on: M14 melanoma
# MALME-3M melanoma = tested on: MALME-3M melanoma
# MCF7 breast = tested on: MCF7 breast
# MDA-MB-231 breast = tested on: MDA-MB-231 breast
# MDA-MB-435 = tested on: MDA-MB-435
# MOLT-4 leukemia = tested on: MOLT-4 leukemia
# NCI-H226 lung = tested on: NCI-H226 lung
# NCI-H23 lung = tested on: NCI-H23 lung
# NCI-H460 lung = tested on: NCI-H460 lung
# NCI-H522 lung = tested on: NCI-H522 lung
# NCI/ADR-RES ovarian = tested on: NCI/ADR-RES ovarian
# OVCAR-3 ovarian = tested on: OVCAR-3 ovarian
# OVCAR-4 ovarian = tested on: OVCAR-4 ovarian
# OVCAR-5 ovarian = tested on: OVCAR-5 ovarian
# OVCAR-8 ovarian = tested on: OVCAR-8 ovarian
# PC-3 prostate = tested on: PC-3 prostate
# RXF 393 renal = tested on: RXF 393 renal
# SF-268 CNS = tested on: SF-268 CNS
# SF-295 CNS = tested on: SF-295 CNS
# SF-539 CNS = tested on: SF-539 CNS
# SK-MEL-2 melanoma = tested on: SK-MEL-2 melanoma
# SK-MEL-28 melanoma = tested on: SK-MEL-28 melanoma
# SK-MEL-5 melanoma = tested on: SK-MEL-5 melanoma
# SK-OV-3 ovarian = tested on: SK-OV-3 ovarian
# SN12C renal = tested on: SN12C renal
# SNB-19 CNS = tested on: SNB-19 CNS
# SNB-75 CNS = tested on: SNB-75 CNS
# SR leukemia = tested on: SR leukemia
# SW-620 colon = tested on: SW-620 colon
# T-47D breast = tested on: T-47D breast
# TK-10 renal = tested on: TK-10 renal
# U251 CNS = tested on: U251 CNS
# UACC-257 melanoma = tested on: UACC-257 melanoma
# UACC-62 melanoma = tested on: UACC-62 melanoma
# UO-31 renal = tested on: UO-31 renal
structure (smiles),measurement,setting,value
O=C(Nc1ccc(Cl)cc1)Nc1nc2ccc([N+](=O)[O-])cc2s1,GI50,786-0 renal,0.776 µM
same,TGI,786-0 renal,2.39 µM
same,GI50,A498 renal,0.275 µM
same,TGI,A498 renal,0.996 µM
same,GI50,A549 NSCLC,0.837 µM
same,TGI,A549 NSCLC,3.43 µM
same,GI50,ACHN renal,0.751 µM
same,TGI,ACHN renal,2.29 µM
same,GI50,BT-549 breast,0.593 µM
same,TGI,BT-549 breast,1.76 µM
same,GI50,CAKI-1 renal,0.653 µM
same,TGI,CAKI-1 renal,2.51 µM
same,GI50,CCRF-CEM leukemia,0.393 µM
same,TGI,CCRF-CEM leukemia,1.85 µM
same,GI50,COLO 205 colon,1.7 µM
same,TGI,COLO 205 colon,3.29 µM
same,GI50,DU-145 prostate,1.11 µM
same,TGI,DU-145 prostate,5.15 µM
same,GI50,EKVX NSCLC,0.886 µM
same,TGI,EKVX NSCLC,2.66 µM
same,GI50,HCC-2998 colon,0.59 µM
same,TGI,HCC-2998 colon,2.08 µM
same,GI50,HCT-116 colon,0.346 µM
same,TGI,HCT-116 colon,1.27 µM
same,GI50,HCT-15 colon,0.675 µM
same,TGI,HCT-15 colon,2.11 µM
same,GI50,HL-60(TB) leukemia,0.604 µM
same,TGI,HL-60(TB) leukemia,2.02 µM
same,GI50,HOP-62 NSCLC,1.19 µM
same,TGI,HOP-62 NSCLC,3.13 µM
same,GI50,HOP-92 NSCLC,0.187 µM
same,TGI,HOP-92 NSCLC,0.628 µM
same,GI50,HS 578T breast,1.17 µM
same,TGI,HS 578T breast,3.87 µM
same,GI50,HT29 colon,2.57 µM
same,TGI,HT29 colon,7.14 µM
same,GI50,IGROV1 ovarian,1.08 µM
same,TGI,IGROV1 ovarian,2.68 µM
same,GI50,K-562 leukemia,0.375 µM
same,TGI,K-562 leukemia,1.55 µM
same,GI50,KM12 colon,0.642 µM
same,TGI,KM12 colon,2.31 µM
same,GI50,LOX IMVI melanoma,0.727 µM
same,TGI,LOX IMVI melanoma,2.06 µM
same,GI50,M14 melanoma,0.815 µM
same,TGI,M14 melanoma,2.24 µM
same,GI50,MALME-3M melanoma,0.467 µM
same,TGI,MALME-3M melanoma,1.87 µM
same,GI50,MCF7 breast,0.46 µM
same,TGI,MCF7 breast,1.91 µM
same,GI50,MDA-MB-231 breast,1.12 µM
same,TGI,MDA-MB-231 breast,2.92 µM
same,GI50,MDA-MB-435,0.729 µM
same,TGI,MDA-MB-435,2.2 µM
same,GI50,MOLT-4 leukemia,0.438 µM
same,TGI,MOLT-4 leukemia,1.98 µM
same,GI50,NCI-H226 lung,0.777 µM
same,TGI,NCI-H226 lung,2.46 µM
same,GI50,NCI-H23 lung,0.332 µM
same,TGI,NCI-H23 lung,1.26 µM
same,GI50,NCI-H460 lung,0.468 µM
same,TGI,NCI-H460 lung,1.7 µM
same,GI50,NCI-H522 lung,0.378 µM
same,TGI,NCI-H522 lung,2.89 µM
same,GI50,NCI/ADR-RES ovarian,0.88 µM
same,TGI,NCI/ADR-RES ovarian,2.28 µM
same,GI50,OVCAR-3 ovarian,0.435 µM
same,TGI,OVCAR-3 ovarian,1.59 µM
same,GI50,OVCAR-4 ovarian,0.573 µM
same,TGI,OVCAR-4 ovarian,3.13 µM
same,GI50,OVCAR-5 ovarian,1.85 µM
same,TGI,OVCAR-5 ovarian,4.45 µM
same,GI50,OVCAR-8 ovarian,1.27 µM
same,TGI,OVCAR-8 ovarian,4.7 µM
same,GI50,PC-3 prostate,0.38 µM
same,TGI,PC-3 prostate,1.63 µM
same,GI50,RXF 393 renal,0.587 µM
same,TGI,RXF 393 renal,1.94 µM
same,GI50,SF-268 CNS,1.09 µM
same,TGI,SF-268 CNS,3.46 µM
same,GI50,SF-295 CNS,0.728 µM
same,TGI,SF-295 CNS,2.12 µM
same,GI50,SF-539 CNS,0.915 µM
same,TGI,SF-539 CNS,2.35 µM
same,GI50,SK-MEL-2 melanoma,0.554 µM
same,TGI,SK-MEL-2 melanoma,2.32 µM
same,GI50,SK-MEL-28 melanoma,0.663 µM
same,TGI,SK-MEL-28 melanoma,2.02 µM
same,GI50,SK-MEL-5 melanoma,0.365 µM
same,TGI,SK-MEL-5 melanoma,1.33 µM
same,GI50,SK-OV-3 ovarian,0.843 µM
same,TGI,SK-OV-3 ovarian,4.51 µM
same,GI50,SN12C renal,0.647 µM
same,TGI,SN12C renal,2.59 µM
same,GI50,SNB-19 CNS,0.735 µM
same,TGI,SNB-19 CNS,2.75 µM
same,GI50,SNB-75 CNS,0.952 µM
same,TGI,SNB-75 CNS,3.51 µM
same,GI50,SR leukemia,0.566 µM
same,TGI,SR leukemia,2.28 µM
same,GI50,SW-620 colon,0.84 µM
same,TGI,SW-620 colon,2.34 µM
same,GI50,T-47D breast,0.308 µM
same,TGI,T-47D breast,1.28 µM
same,GI50,TK-10 renal,0.889 µM
same,TGI,TK-10 renal,4.32 µM
same,GI50,U251 CNS,0.606 µM
same,TGI,U251 CNS,2.57 µM
same,GI50,UACC-257 melanoma,0.639 µM
same,TGI,UACC-257 melanoma,2.79 µM
same,GI50,UACC-62 melanoma,0.485 µM
same,TGI,UACC-62 melanoma,2.14 µM
same,GI50,UO-31 renal,0.545 µM
same,TGI,UO-31 renal,2.45 µM
